Measurements reported in EP3495350B1, “COMPOUND INHIBITING FORMATION OF C-MYC/MAX/DNA COMPLEX” (National Cancer Center, priority 2016, dated 2018).

Assays:
KU19-19 = test: Cell based assay, cell viability (CellTiter-Glo), KU19-19; details: Homo sapiens, KU-19-19; 72 hours, 0 to 2 µM; read-out: cell based assay cell line 2 KU19-19 IC50
Protocol: (§1) Commercially available bladder cancer cell lines were treated with trypsin-EDTA and seeded in each well of a 96 well plate, followed by incubation for 24 hours. After incubation, candidate compounds were added to each well at a final concentration of 0 to 2 µM. The compound-treated cells were further incubated for 72 hours. Cell viability was measured using an ATP detection method (CellTiter-Glo Luminescent Cell Viability Assay, Promega).
(§2) The selectivity of the compounds of the present disclosure to cancer cells was evaluated in the same manner as described in "2. Cell based assay".

MBT-2 = test: Cell based assay, cell viability (CellTiter-Glo), MBT-2; details: 72 hours, 0 to 2 µM; read-out: cell based assay cell line 1 MBT-2 IC50
Protocol: as §1, §2

253J = test: Cell based assay, cell viability (CellTiter-Glo), 253J; details: Homo sapiens; 72 hours, 0 to 2 µM; read-out: cell based assay cell line 3 253J IC50
Protocol: as §1, §2

UM-UC-3 = test: Cell based assay, cell viability (CellTiter-Glo), UM-UC-3; details: Homo sapiens, UMUC3; 72 hours, 0 to 2 µM; read-out: cell based assay cell line 4 UM-UC-3 IC50
Protocol: as §1, §2

Compound	IC50 (KU19-19) [µM]	IC50 (MBT-2) [µM]	IC50 (253J) [µM]	IC50 (UM-UC-3) [µM]
COc1cc(S(F)(F)(F)(F)F)ccc1C[S+]([O-])c1[nH]c2c(Br)ccc(Cl)c2c(=O)c1C(C)=O (stereo not drawn) [Compound 75, 3-acetyl-8-bromo-5-chloro-2-((2-methoxy-4-(pentafluoro-λ6-sulfanyl)benzyl)sulfinyl)quinolin-4(1H)-one]	1.21	1.05	0.86	1.01
CC(=O)c1c([S+]([O-])Cc2cc(F)cc(S(F)(F)(F)(F)F)c2)[nH]c2c(Br)ccc(Cl)c2c1=O (stereo not drawn) [Compound 76, 3-acetyl-8-bromo-5-chloro-2-((3-fluoro-5 - (pentafluoro-λ6-sulfanyl)benzyl)sulfinyl)quinolin-4(1H)-one]	1.86	1.86	1.24	1.39
CC(=O)c1c([S+]([O-])Cc2cccc(S(F)(F)(F)(F)F)c2)[nH]c2c(Br)ccc(Cl)c2c1=O (stereo not drawn) [Compound 77, 3-acetyl-8-bromo-5-chloro-2-((3-(pentafluoro-λ6-sulfanyl)benzyl)sulfinyl)quinolin-4(1H)-one]	1.38	1.45	0.9	1.18
CC(=O)c1c([S+]([O-])Cc2c(F)c(F)c(F)c(F)c2F)[nH]c2c(Br)ccc(Cl)c2c1=O (stereo not drawn) [Compound 78, 3-acetyl-8-bromo-5-chloro-2-(((perfluorophenyl)methyl)sulfinyl)quinolin-4(1H)-one]	> 2	1.53	1.29	1.39
CC(=O)c1c([S+]([O-])Cc2ccc(SC(F)(F)F)cc2)[nH]c2c(Cl)ccc(Cl)c2c1=O (stereo not drawn) [Compound 79, 3-acetyl-5,8-dichloro-2-((4-((trifluoromethyl)thio)benzyl)sulfinyl)quinolin-4(1H)-one]	> 2	> 2	> 2	> 2
CC(=O)c1c([S+]([O-])Cc2ccc(S(F)(F)(F)(F)F)cc2)[nH]c2c(F)ccc(F)c2c1=O (stereo not drawn) [Compound 80, 3-acetyl-5,8-difluoro-2-((4-(pentafluoro-λ6-sulfanyl)benzyl)sulfinyl)quinolin-4(1H)-one]	> 2	> 2	> 2	> 2
CC(=O)c1c([S+]([O-])Cc2ccc(C(F)(F)F)o2)[nH]c2c(F)ccc(F)c2c1=O (stereo not drawn) [Compound 81, 3-acetyl-5,8-difluoro-2-(((5-(trifluoromethyl)furan-2-yl)methyl)sulfinyl)quinolin-4(1H)-one]	> 2	> 2	> 2	> 2
CC(=O)c1c([S+]([O-])Cc2cc(C)on2)[nH]c2c(F)ccc(F)c2c1=O (stereo not drawn) [Compound 82, 3-acetyl-5,8-difluoro-2-(((5-methylisoxazol-3 - yl)methyl)sulfinyl)quinolin-4(1H)-one]	> 2	> 2	> 2	> 2
CC(=O)c1c([S+]([O-])Cc2ccc(I)cc2)[nH]c2c(Cl)ccc(Cl)c2c1=O (stereo not drawn) [Compound 83, 3-acetyl-5,8-dichloro-2-((4-iodobenzyl)sulfinyl)quinolin-4(1H)-one]	1.6	1.35	1.42	1.31
CC(=O)c1c([S+]([O-])Cc2cccnc2)[nH]c2c(Br)ccc(Cl)c2c1=O (stereo not drawn) [Compound 84, 3-acetyl-8-bromo-5-chloro-2-((pyridin-3-ylmethyl)sulfinyl)quinolin-4(1H)-one]	1.5	0.67	0.87	0.76
CC(C)C(=O)c1c([S+]([O-])Cc2ccc(SC(F)(F)F)cc2)[nH]c2c(F)ccc(F)c2c1=O (stereo not drawn) [Compound 85, 5,8-difluoro-3-isobutyryl-2-((4-((trifluoromethyl)thio)benzyl)sulfinyl)quinolin-4(1H)-one]	> 2	> 2	> 2	> 2
Cc1cc(C[S+]([O-])c2[nH]c3c(Cl)ccc(Cl)c3c(=O)c2C(=O)C(C)C)no1 (stereo not drawn) [Compound 86, 5,8-dichloro-3-isobutyryl-2-(((5 - methylisoxazol-3-yl)methyl)sulfinyl)quinolin-4(1H)-one]	1.41	0.81	1.06	1.26
O=C(c1ccccc1)c1c([S+]([O-])Cc2ccc(S(F)(F)(F)(F)F)cc2)[nH]c2c(F)ccc(F)c2c1=O (stereo not drawn) [Compound 87, 3-benzoyl-5,8-difluoro-2-((4-(pentafluoro-λ6-sulfanyl)benzyl)sulfinyl)quinolin-4(1H)-one]	> 2	> 2	> 2	> 2
Cc1cc(C[S+]([O-])c2[nH]c3c(Cl)ccc(Cl)c3c(=O)c2C(=O)c2ccccc2)no1 (stereo not drawn) [Compound 88, 3-benzoyl-5,8-dichloro-2-(((5-methylisoxazol-3-yl)methyl)sulfinyl)quinolin-4(1H)-one]	> 2	> 2	> 2	> 2
COC(=O)c1ccc(C[S+]([O-])c2[nH]c3c(Cl)ccc(Cl)c3c(=O)c2C(C)=O)o1 (stereo not drawn) [Compound 89, methyl 5-(((3-acetyl-5,8-dichloro-4-oxo-1,4-dihydroquinolin-2-yl)sulfinyl)methyl)furan-2-carboxylate]	> 2	1.27	1.84	1.47
COC(=O)c1ccc(C[S+]([O-])c2[nH]c3c(Cl)ccc(Cl)c3c(=O)c2C(C)=O)cc1 (stereo not drawn) [Compound 91, methyl 4-(((3-acetyl-5,8-dichloro-4-oxo-1,4-dihydroquinolin-2-yl)sulfinyl)methyl)benzoate]	> 2	1.37	> 2	1.56
COc1cccc2[nH]c([S+]([O-])Cc3ccc(S(F)(F)(F)(F)F)cc3)c(C(C)=O)c(=O)c12 (stereo not drawn) [Compound 93, 3-acetyl-5-methoxy-2-((4-(pentafluoro-λ6-sulfanyl)benzyl)sulfinyl)quinolin-4(1H)-one]	> 2	> 2	> 2	> 2
COc1cccc2[nH]c([S+]([O-])Cc3cc(C)on3)c(C(C)=O)c(=O)c12 (stereo not drawn) [Compound 94, 3-acetyl-5-methoxy-2-(((5-methylisoxazol-3 - yl)methyl)sulfinyl)quinolin-4(1H)-one]	> 2	1.53	> 2	> 2
Cc1cc(C[S+]([O-])c2[nH]c3c(Br)ccc(Cl)c3c(=O)c2C(=O)C(C)C)no1 (stereo not drawn) [Compound 95, 8-bromo-5-chloro-3-isobutyryl-2-(((5-methylisoxazol-3-yl)methyl)sulfinyl)quinolin-4(1H)-one]	1.29	0.8	0.77	1.06
Cc1cc(C[S+]([O-])c2[nH]c3c(Br)ccc(Cl)c3c(=O)c2C(=O)C2CC2)no1 (stereo not drawn) [Compound 96, 8-bromo-5-chloro-3-(cyclopropanecarbonyl)-2-(((5-methylisoxazol-3-yl)methyl)sulfinyl)quinolin-4(1H)-one]	> 2	1.06	1.49	1.63
Cc1cc(C[S+]([O-])c2[nH]c3c(Cl)ccc(Cl)c3c(=O)c2C(=O)C2CC2)no1 (stereo not drawn) [Compound 97, 5,8-dichloro-3-(cyclopropanecarbonyl)-2-(((5 - methylisoxazol-3-yl)methyl)sulfinyl)quinolin-4(1H)-one]	1.62	0.81	1.2	1.27
